{"source": "paper PMC7993260", "about": "(Clinical and Translational Science, 2020)", "key": {"OATP1A2": {"test_system": "OATP1A2", "details": "in vitro; cited from earlier work"}, "OATP2B1": {"test_system": "OATP2B1", "details": "in vitro; cited from earlier work"}, "OATP1B1": {"test_system": "OATP1B1", "details": "in vitro; cited from earlier work"}, "[1]": {"assay_type": "in vivo, human", "details": "for A e, amount excreted unchanged into urine over 24 hours / CL renal / AUC(0-t) / AUC(0-inf): geometric mean; for CL renal: plasma and urine, CLrenal; for AUC(0-inf): AUC0–∞"}, "[2]": {"details": "cited from earlier work"}, "[3]": {"assay": "Acute hemodynamic response to lisinopril", "assay_type": "in vivo, human"}, "PEPT1": {"test_system": "PEPT1", "details": "Caco-2 cells; cited from earlier work"}, "[4]": {"details": "stated as similar for lisinopril and nadolol"}}, "note": "Where two headings read alike, the source gives them in different places.", "data": [{"compound": "O=C(O[C@@H]1Cc2c(O)cc(O)cc2O[C@@H]1c1cc(O)c(O)c(O)c1)c1cc(O)c(O)c(O)c1", "note": "[EGCG, (–)‐epigallocatechin gallate]", "values": [{"measurement": "inhibition of OATP1A2 activity", "setting": "OATP1A2", "value": "have been shown to inhibit"}, {"measurement": "inhibition of OATP2B1 activity", "setting": "OATP2B1", "value": "have been shown to inhibit"}, {"measurement": "inhibition of OATP1B1 activity", "setting": "OATP1B1", "value": "have been shown to inhibit"}]}, {"compound": "NCCCC[C@H](N[C@@H](CCc1ccccc1)C(=O)O)C(=O)N1CCC[C@H]1C(=O)O", "note": "[lisinopril]", "values": [{"measurement": "decrease in AUC0-24 in the GTE phase compared with control phase", "setting": "[1]; GTE vs control, P < 0.001", "value": 69, "unit": "%"}, {"measurement": "decrease in AUC0–∞ in the GTE phase compared with control phase", "setting": "[1]; GTE vs control, P < 0.001", "value": 67, "unit": "%"}, {"measurement": "decrease in C max in the GTE phase compared with control phase", "setting": "[1]; GTE vs control, P < 0.001", "value": 71, "unit": "%"}, {"measurement": "A e, amount excreted unchanged into urine over 24 hours", "setting": "[1]; GTE", "value": 0.54, "unit": "mg"}, {"measurement": "CL renal", "setting": "[1]; both, human, po, 10 mg, GTE", "value": 56.9, "unit": "mL/min"}, {"measurement": "CL renal", "setting": "[1]; both, human, po, 10 mg, control (water)", "value": 57.7, "unit": "mL/min"}, {"measurement": "Tmax", "setting": "[1]; both, human, plasma, po, 10 mg", "value": 6, "unit": "h"}, {"measurement": "AUC(0-t)", "setting": "[1]; both, human, plasma, po, 10 mg, AUC0–24, GTE", "value": 157, "unit": "ng·h/mL"}, {"measurement": "AUC(0-t)", "setting": "[1]; both, human, plasma, po, 10 mg, AUC0–24, control (water)", "value": 504, "unit": "ng·h/mL"}, {"measurement": "AUC(0-inf)", "setting": "[1]; both, human, plasma, po, 10 mg, GTE", "value": 186, "unit": "ng·h/mL"}, {"measurement": "AUC(0-inf)", "setting": "[1]; both, human, plasma, po, 10 mg, control (water)", "value": 554, "unit": "ng·h/mL"}, {"measurement": "A e, amount excreted unchanged into urine over 24 hours", "setting": "[1]; control (water)", "value": 1.75, "unit": "mg"}, {"measurement": "A e GMR (GTE/control)", "setting": "[1]; geometric mean ratio GTE/control", "value": 0.307}, {"measurement": "adverse events", "setting": "[1]; ten subjects who completed the study, both phases", "value": "no adverse events"}, {"measurement": "oral bioavailability", "setting": "[2]", "value": 29, "unit": "%"}, {"measurement": "oral bioavailability", "setting": "[2]; [4]", "value": "ca. 30%"}, {"measurement": "DBP", "setting": "[3]; GTE phase, 6 hours after 10 mg oral lisinopril, mean ± SD, baseline 68 ± 10 mmHg", "value": "55 ± 4", "unit": "mmHg"}, {"measurement": "mean maximum decrease of DBP from baseline", "setting": "[3]; both phases, at 6 hours after the administration", "value": "about 20%"}, {"measurement": "SBP and PR, control vs GTE phases", "setting": "[3]; single oral dose 10 mg lisinopril", "value": "no differences"}]}, {"compound": "CC(C)(C)NCC(O)COc1cccc2c1CC(O)C(O)C2", "note": "(stereo not drawn) [nadolol]", "values": [{"measurement": "oral bioavailability", "setting": "[2]; [4]", "value": "ca. 30%"}]}, {"compound": "(–)‐epicatechin gallate", "values": [{"measurement": "inhibition of OATP1A2 activity", "setting": "OATP1A2", "value": "have been shown to inhibit"}, {"measurement": "inhibition of OATP2B1 activity", "setting": "OATP2B1", "value": "have been shown to inhibit"}, {"measurement": "inhibition of OATP1B1 activity", "setting": "OATP1B1", "value": "have been shown to inhibit"}, {"measurement": "inhibition of uptake transport of glycyl-sarcosine, a typical substrate of PEPT1", "setting": "PEPT1", "value": "not inhibiting"}]}]}
